The target in this test is T1, Phospholipase A2, membrane associated (Homo sapiens, UniProt P14555).
T1 sequence (P14555 whole entry): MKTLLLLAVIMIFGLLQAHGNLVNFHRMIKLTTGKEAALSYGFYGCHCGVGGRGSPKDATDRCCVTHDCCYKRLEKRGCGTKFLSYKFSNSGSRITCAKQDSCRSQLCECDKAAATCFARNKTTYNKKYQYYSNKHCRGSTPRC
Put plainly: Inhibition of sPLA2-2A in HEK293 cell. The class given is cell-based.

For `O=c1cc(-c2ccc(-c3ccc4oc(-c5ccccc5)cc(=O)c4c3)cc2)oc2ccccc12`, the half-maximal inhibitory concentration (IC50) worked out at 63.9 µM.

`O=c1cc(-c2ccc(-c3ccc(-c4cc(=O)c5ccccc5o4)cc3)cc2)oc2ccccc12`: the half-inhibitory concentration (IC50) came out at 3 µM.

Regarding `O=c1cc(-c2ccc(O)c(-c3c(O)cc(O)c4c(=O)cc(-c5ccc(O)cc5)oc34)c2)oc2cc(O)cc(O)c12` [AMENTOFLAVONE], it took 23.8 µM to reach half-maximal inhibition (IC50).

Compound `O=c1cc(-c2ccc(-c3cccc(-c4cc(=O)c5ccccc5o4)c3)cc2)oc2ccccc12` gave an IC50 of 15.5 µM.

Consider `O=c1cc(-c2ccc(-c3c(-c4ccccc4)oc4ccccc4c3=O)cc2)oc2ccccc12`, for which the IC50 was found to be 23.2 µM.

Turning to `O=c1cc(-c2cccc(-c3ccc4oc(-c5ccccc5)cc(=O)c4c3)c2)oc2ccccc12`, half-maximal inhibition (IC50) required 19.9 µM.

For the compound `O=c1cc(-c2ccc(Oc3cc(-c4cc(=O)c5c(O)cc(O)cc5o4)ccc3O)cc2)oc2cc(O)cc(O)c12` [OCHNAFLAVONE], the IC50 was 3.5 µM.

Take `O=c1cc(-c2ccccc2)oc2ccc(-c3ccc4oc(-c5ccccc5)cc(=O)c4c3)cc12`: the concentration for half-maximal inhibition (IC50) stood at 69.3 µM.
